Reference: patent US20020077345A1, “Cis-substituted aminocycloalkylpyrrolidine derivatives” (priority 1997, published 2002)
Converted amounts (≈) assume the structure as drawn. Counter-ions that a name gives are not always drawn. Like-named read-outs stand apart in the source and are kept apart here. Marks after values point to notes of the source that are not given here.

Key:
[1] = test system: Slc:ddy male mice; assay: Acute toxicity, intravenous administration to mice; format: in vivo; conditions: deaths/mice dosed
Experimental: A solution of 5-amino-7-[4-(R)-(1-aminocyclopropyl)-3-(S)-fluoro-1-pyrrolidinyl]-6-fluoro-1-[2-(S)-fluoro-1-(R)-cyclopropyl]-1,4-dihydro-8-methyl-4-oxoquinoline-3-carboxylic acid (abbreviated as cis) hydrochloride (Example 2) or 5-amino-7-[4-(R)-(1-aminocyclopropyl)-3-(R)-fluoro-1-pyrrolidinyl]-6-fluoro-1-(2-(S)-fluoro-1-(R)-cyclopropyl]-1,4-dihydro-8-methyl-4-oxoquinoline-3-carboxylic acid (abbreviated as trans) hydrochloride in distilled water for injection was administered intravenously to Slc:ddy male mice (five mice per group) and the symptoms are observed. The results are as follows.

[2] = test system: Pr. mirabilis, IFO-3849; assay: Antimicrobial activity (MIC), standard method of Japan Society of Chemotherapy; format: cell-based
Experimental: (§1) To further illustrate the present invention in greater detail, and not by way of limitation, the following Examples will be given. The antimicrobial activity of each target compound was evaluated in accordance with the standard method specified by Japan Society of Chemotherapy and expressed in MIC (μg/ml).

[3] = test system: S. aureus, 870307; assay: as above; format: cell-based
Experimental: as §1

[4] = test system: Ps. aeruginosa, 32121; assay: as above; format: cell-based
Experimental: as §1

[5] = test system: S. aureus, 209P; assay: as above; format: cell-based
Experimental: as §1

[6] = test system: Ps. aeruginosa, 32104; assay: as above; format: cell-based
Experimental: as §1

[7] = test system: Pr. vulgaris, 08601; assay: as above; format: cell-based
Experimental: as §1

[8] = test system: X. maltophilia, 11D-1275; assay: as above; format: cell-based
Experimental: as §1

[9] = test system: Str. faecalis, ATCC-19433; assay: as above; format: cell-based
Experimental: as §1

[10] = test system: Str. pyogenes, G-36; assay: as above; format: cell-based
Experimental: as §1

[11] = test system: S. flexneli, 2A 5503; assay: as above; format: cell-based
Experimental: as §1

[12] = test system: E. coli, NIHJ; assay: as above; format: cell-based
Experimental: as §1

[13] = test system: S. epidermidis, 56500; assay: as above; format: cell-based
Experimental: as §1

[14] = test system: Ser. marcescens, 10100; assay: as above; format: cell-based
Experimental: as §1

[15] = 150 mg/kg intravenously, five per group
[16] = Proteus mirabilis, IFO3849, read-out: MIC
[17] = Staphylococcus aureus, read-out: MIC
[18] = Pseudomonas aeruginosa, read-out: MIC
[19] = Proteus vulgaris, read-out: MIC
[20] = Stenotrophomonas maltophilia, 11D1275, read-out: MIC
[21] = Enterococcus faecalis, ATCC19433, read-out: MIC
[22] = Streptococcus pyogenes, G36, read-out: MIC
[23] = Escherichia coli, read-out: MIC
[24] = Staphylococcus epidermidis, read-out: MIC
[25] = Serratia marcescens, read-out: MIC

SMILES | Number of death [1, 15] | MIC [2, 16] [µg/mL] | MIC [3, 17] [µg/mL] | MIC [4, 18] [µg/mL] | MIC [5, 17] [µg/mL] | MIC [6, 18] [µg/mL] | MIC [7, 19] [µg/mL] | MIC [8, 20] [µg/mL] | MIC [9, 21] [µg/mL] | MIC [10, 22] [µg/mL] | MIC [11] [µg/mL] | MIC [12, 23] [µg/mL] | MIC [13, 24] [µg/mL] | MIC [14, 25] [µg/mL] | further results
Cc1c(N2CC(F)[C@@H](C3(N)CCC3)C2)c(F)c(N)c2c(=O)c(C(=O)O)cn(C3CC3F)c12 (single isomer, unassigned; isomer b) [Example 9] | same result | – | – | – | – | – | – | – | – | – | – | – | – | – | –
Cc1c(N2CC(CO)C(C3(N)CC3)C2)c(F)c(N)c2c(=O)c(C(=O)O)cn(C3CC3)c12 (stereo not drawn) [Example 1, 5-Amino-7-[cis-4-(1-aminocycloproiyl)-3-hydroxymethyl-1-pyrrolidinyl]-1-cyclopropyl-6-fluoro-1,4-dihydro-8-methyl-4-oxoquinoline-3-carboxylic acid] | same result | – | – | – | – | – | – | – | – | – | – | – | – | – | –
Cc1c(N2C[C@@H](F)[C@@H](C3(N)CC3)C2)c(F)c(N)c2c(=O)c(C(=O)O)cn([C@@H]3C[C@@H]3F)c12 [Example 2, 5-Amino-7-[4-(R)-(1-aminocyclopropyl)-3-(S)-fluoro-1-pyrrolidinyl]-6-fluoro-1-[2-(S)-fluoro-1-(R)-cyclopropyl1-1,4-dihydro-8-methyl-4-oxoquinoline-3-carboxylic acid hydrochloride] | 0/5 | 0.025 | 0.025 | 0.05 | ≤ 0.003 | 0.1 | 0.013 | 0.05 | 0.025 | ≤ 0.003 | ≤ 0.003 | ≤ 0.003 | ≤ 0.003 | 0.05 | –
COc1c(N2C[C@@H](F)[C@@H](C3(N)CC3)C2)c(F)c(N)c2c(=O)c(C(=O)O)cn([C@@H]3C[C@@H]3F)c12 [Example 3] | same result | 0.1 (≈ 0.221 µM) | 0.025 (≈ 0.0553 µM) | 0.2 (≈ 0.442 µM) | ≤ 0.003 | 0.39 (≈ 0.862 µM) | 0.05 (≈ 0.111 µM) | 0.2 (≈ 0.442 µM) | 0.05 (≈ 0.111 µM) | 0.013 (≈ 0.0287 µM) | 0.006 (≈ 0.0133 µM) | 0.006 (≈ 0.0133 µM) | 0.006 (≈ 0.0133 µM) | 0.2 (≈ 0.442 µM) | –
C[C@H]1COc2c(N3C[C@@H](F)[C@@H](C4(N)CC4)C3)c(F)cc3c(=O)c(C(=O)O)cn1c23 [Example 4, 10-[4-(R)-(1-Aminocyclopropyl)-3-(S)-fluoro-1-pyrrolidinyl]-9-fluoro-2,3-dihydro-3-(S)-methyl-7-oxo-7H-pyrido[1,2,3-de][1,4]benzoxazine-6-carboxylic acid] | same result | – | – | – | – | – | – | – | – | – | – | – | – | – | –
COc1c(N2C[C@@H](F)[C@@H](C3(N)CC3)C2)c(F)cc2c(=O)c(C(=O)O)cn([C@@H]3C[C@@H]3F)c12 [Example 5, 7-[4-(R)-(1-Aminocyclopropyl)-3-(S)-fluoro-1-pyrrolidinyl]-6-fluoro-1-[2-(S)-fluoro-1-(R)-cycloproyyl]-1,4-dihydro-8-methoxy-4-oxoquinoline-3-carboxylic acid] | same result | – | – | – | – | – | – | – | – | – | – | – | – | – | MIC [2]: 0.05 µg/mL (≈ 0.114 µM); MIC [3]: 0.025 µg/mL (≈ 0.0572 µM); MIC [4]: 0.10 µg/mL (≈ 0.229 µM); MIC [5]: ≦0.003 μg/ml; MIC [6]: 0.20 µg/mL (≈ 0.457 µM); MIC [7]: 0.006 µg/mL (≈ 0.0137 µM); MIC [8]: 0.20 µg/mL (≈ 0.457 µM); MIC [9]: 0.025 µg/mL (≈ 0.0572 µM); MIC [10]: 0.006 µg/mL (≈ 0.0137 µM); MIC ([11]; S. flexneli, 2A 5503): 0.006 µg/mL (≈ 0.0137 µM); MIC [12]: ≦0.003 μg/ml; MIC [13]: 0.013 µg/mL (≈ 0.0297 µM); MIC [14]: 0.10 µg/mL (≈ 0.229 µM)
C[C@H]1COc2c(N3C[C@@H](F)[C@@H](C4(N)CC4)C3)c(F)cc3c(=O)c(C(=O)O)cn1c23.Cl [Example 6, 10-[4-(R)-(1-Aminocyclopropyl)-3-(S)-fluoro-1-pyrrolidinyl]-9-fluoro-2,3-dihydro-3-(S)-methyl-7-oxo-7H-pyrido[1,2,3-de][1,4]benzoxazine-6-carboxylic acid hydrochloride] | – | 0.1 | 0.2 | 0.1 | 0.006 | 0.39 | 0.025 | 0.39 | 0.05 | 0.01 | 0.01 | 0.01 | 0.025 | 0.1 | –
C[C@H]1COc2c(N3C[C@@H](F)[C@@H](C4(N)CC4)C3)c(F)c(N)c3c(=O)c(C(=O)O)cn1c23 [Example 8, 8-Amino-10-[4-(R)-(1-aminocyclopropyl)-3-(S)-fluoro-1-pyrrolidinyl]-9-fluoro-2,3-dihydro-3-(S)-methyl-7-oxo-7H-pyrido[1,2,3-de][1,4]benzoxazine-6-carboxylic acid] | same result | 0.1 (≈ 0.238 µM) | 0.2 (≈ 0.476 µM) | 0.2 (≈ 0.476 µM) | 0.006 (≈ 0.0143 µM) | 0.39 (≈ 0.928 µM) | 0.1 (≈ 0.238 µM) | 0.39 (≈ 0.928 µM) | 0.05 (≈ 0.119 µM) | 0.025 (≈ 0.0595 µM) | 0.013 (≈ 0.0309 µM) | 0.006 (≈ 0.0143 µM) | 0.013 (≈ 0.0309 µM) | 0.2 (≈ 0.476 µM) | –
Cc1c(N2C[C@H](F)[C@@H](C3(N)CC3)C2)c(F)c(N)c2c(=O)c(C(=O)O)cn([C@@H]3C[C@@H]3F)c12 [trans, 5-amino-7-[4-(R)-(1-aminocyclopropyl)-3-(R)-fluoro-1-pyrrolidinyl]-6-fluoro-1-(2-(S)-fluoro-1-(R)-cyclopropyl]-1,4-dihydro-8-methyl-4-oxoquinoline-3-carboxylic acid, reference compound] | 2/2* | – | – | – | – | – | – | – | – | – | – | – | – | – | Number of death ([1]; 50 mg/kg intravenously, five per group): 0/5; Number of death ([1]; 100 mg/kg intravenously, test stopped at second death): 2/2*
